This test deals with HSPA5-FL (Homo sapiens, UniProt P11021). The experiment in a line: ITC, liposomes titrated into protein. Format: binding. Background: In ITC the heat of successive injections is recorded.

We go through 2 compounds from PMC7385938 (Cell Stress & Chaperones, 2020).

Sequence of HSPA5-FL (P11021 25-654): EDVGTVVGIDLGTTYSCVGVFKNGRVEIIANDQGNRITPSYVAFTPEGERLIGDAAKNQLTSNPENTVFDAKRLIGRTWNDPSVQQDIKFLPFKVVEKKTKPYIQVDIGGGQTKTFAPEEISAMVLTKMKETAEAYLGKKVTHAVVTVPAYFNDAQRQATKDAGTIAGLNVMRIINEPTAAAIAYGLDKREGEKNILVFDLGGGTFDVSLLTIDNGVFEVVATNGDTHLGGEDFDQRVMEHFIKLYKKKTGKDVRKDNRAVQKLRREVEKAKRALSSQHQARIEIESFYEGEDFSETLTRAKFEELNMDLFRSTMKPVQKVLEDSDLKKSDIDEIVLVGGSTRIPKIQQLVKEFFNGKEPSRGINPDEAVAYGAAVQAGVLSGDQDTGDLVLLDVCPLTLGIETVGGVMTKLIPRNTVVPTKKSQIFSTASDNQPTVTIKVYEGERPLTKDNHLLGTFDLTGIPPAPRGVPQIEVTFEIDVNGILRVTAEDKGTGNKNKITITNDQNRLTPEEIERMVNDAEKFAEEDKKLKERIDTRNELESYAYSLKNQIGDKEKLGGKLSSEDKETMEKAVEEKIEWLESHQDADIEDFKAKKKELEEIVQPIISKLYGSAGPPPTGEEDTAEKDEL

As a reminder, the Kd is the concentration at which binding is half-saturated. Read a low Kd as tighter binding. As to `CCCCCCCCCCCCCC(=O)OC[C@H](COP(=O)(O)OCC(O)COP(=O)(O)OC[C@@H](COC(=O)CCCCCCCCCCCCC)OC(=O)CCCCCCCCCCCCC)OC(=O)CCCCCCCCCCCCC` (some centres unmarked) [CL, 1′,3′-bis[1,2-dimyristoyl-sn-glycero-3-phospho]-glycerol], the dissociation constant (Kd) was determined as 1600 ± 500 nM.
The result for `CCCCCCCC/C=C\CCCCCCCC(=O)O[C@H](COC(=O)CCCCCCCCCCCCCCC)COP(=O)(O)OC[C@H](N)C(=O)O` [POPS] reads 3500 ± 800 nM.
